{"source": "patent US10314923B2", "about": "“Silybin injection and preparation method therefor” (TASLY PHARMACEUTICAL GROUP CO., LTD., priority 2015, dated 2019)", "key": {"[1]": {"details": "aqueous solution; cited from earlier work"}, "[2]": {"assay": "Inclusion stability of silybin injections containing different types of cyclodextrin, standing at room temperature", "type": "physicochemical", "details": "50 g of cyclodextrin in 1000 ml of water for injection", "excerpt": "The types of cyclodextrin recorded in the Chinese patent application CN200410041364.0 include: β-cyclodextrin, hydroxypropyl-β-cyclodextrin, hydroxyethyl-β-cyclodextrin, methyl-β-cyclodextrin, glucosyl-β-cyclodextrin and sulfonyl-β-cyclodextrin. The cyclodextrin adopted in the present invention is sulfobutylether-β-cyclodextrin and is a specific inclusion material for the present invention. In contrast tests, silybin injections containing different types of cyclodextrin are respectively prepared by adopting the same formulation constituents, formulation dosage and preparation process. Standing is preformed at room temperature for one-week, and the inclusion stability of the injections is observed with the passage of time, that is, the time of medicine precipitation is regarded as a study index to screen the types of cyclodextrin.\nAllow the injections to stand at room temperature for one week, and respectively observe the inclusion stability of the injections over time, i.e., study the influence of different types of cyclodextrins on the inclusion stability of silybin."}, "[3]": {"assay": "Verification of preparation method of CN02125823.6: discoloration and UV scanning for destructiveness of NaOH to silybin", "type": "physicochemical", "details": "scanned within the wavelength of 190-600 nm", "excerpt": "The Chinese patent application CN02125823.6 with the title “silymarin injection containing cyclodextrin or derivatives thereof” and the publication number of CN1391894A, according to the implementing scheme recorded in the Description, has the key technical features of adding silymarin into an aqueous solution containing cyclodextrin, regulating the pH of the solution to alkalinity using sodium hydroxide to dissolve silybin, and after dissolution, regulating the pH value to be 6.0 to 6.5 using hydrochloric acid to obtain a silymarin cyclodextrin inclusion compound. During verification, the silymarin is replaced with silybin, and the verification is strictly performed according to the implementing scheme described in embodiment 1 of the patent.\nDissolving 3 g of hydroxypropyl-β-cyclodextrin in 10 ml of water for injection, adding 300 mg of silybin, regulating the pH value to be 10 with 1N of NaOH solution, continuously stirring for 5 hours to dissolve the silybin, regulating the pH to be 6.5 with 1N of HCl solution, and performing filtration, bacterium removal, sub-packaging, freeze-drying and sealing, to obtain a silybin freeze-dried powder for injection.\nHowever, for the preparation method of the present invention, the discoloration phenomenon is not found in the whole preparation process. […]"}, "[4]": {"details": "taken orally; Wu J W et al. 2007; cited from earlier work"}, "[5]": {"details": "Wang Hongchen 1983; cited from earlier work"}}}
{"smiles": "CNC[C@H](O)[C@@H](O)[C@H](O)[C@H](O)CO.COc1cc(C2Oc3ccc(C4Oc5cc(O)cc(O)c5C(=O)C4O)cc3OC2CO)ccc1O", "note": "(centres unmarked) [silybin N-methylglucamine]", "values": [{"measurement": "pH value", "setting": "[1]", "value": "about 11"}]}
{"smiles": "OC[C@H]1O[C@@H]2O[C@H]3[C@H](O)[C@@H](O)[C@@H](O[C@H]4[C@H](O)[C@@H](O)[C@@H](O[C@H]5[C@H](O)[C@@H](O)[C@@H](O[C@H]6[C@H](O)[C@@H](O)[C@@H](O[C@H]7[C@H](O)[C@@H](O)[C@@H](O[C@H]8[C@H](O)[C@@H](O)[C@@H](O[C@H]1[C@H](O)[C@H]2O)O[C@@H]8CO)O[C@@H]7CO)O[C@@H]6CO)O[C@@H]5CO)O[C@@H]4CO)O[C@@H]3CO", "note": "[β-cyclodextrin]", "values": [{"measurement": "dissolution of cyclodextrin in water", "setting": "[2]", "value": "cannot completely dissolve in water"}]}
{"smiles": "COc1cc([C@@H]2Oc3cc([C@@H]4Oc5cc(O)cc(O)c5C(=O)[C@H]4O)ccc3O[C@H]2CO)ccc1O", "note": "[silybin, Silybin]", "values": [{"measurement": "UV absorption peaks (verification of destructiveness caused by NaOH to silybin)", "setting": "[3]", "value": 287.5, "unit": "nm"}, {"measurement": "absolute bioavailability", "setting": "[4]", "value": 0.95, "unit": "%"}, {"measurement": "water solubility and lipid solubility", "setting": "[5]", "value": "poor"}]}
